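Protocol summary: plate cells (96-well), add compound at 5 concentrations, incubate 48 h, interpolate endpoints linearly. Abbreviation: GI50, concentration required for 50% inhibition of growth. TGI: concentration producing complete growth inhibition.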
Key:
Experiment in all cases: NCI anticancer screen, dose series, 48 h
SF-295 CNS = system: SF-295 CNS
IGROV1 ovarian = system: IGROV1 ovarian
HCC-2998 colon = system: HCC-2998 colon
OVCAR-8 ovarian = system: OVCAR-8 ovarian
A498 renal = system: A498 renal
M14 melanoma = system: M14 melanoma
OVCAR-5 ovarian = system: OVCAR-5 ovarian
OVCAR-3 ovarian = system: OVCAR-3 ovarian

SMILES | TGI (SF-295 CNS) [µM] | TGI (IGROV1 ovarian) [µM] | TGI (HCC-2998 colon) [µM] | TGI (OVCAR-8 ovarian) [µM] | TGI (A498 renal) [µM] | TGI (M14 melanoma) [µM] | TGI (OVCAR-5 ovarian) [µM] | TGI (OVCAR-3 ovarian) [µM] | GI50 (SF-295 CNS) [µM] | GI50 (IGROV1 ovarian) [µM] | GI50 (HCC-2998 colon) [µM] | GI50 (OVCAR-8 ovarian) [µM] | GI50 (A498 renal) [µM] | GI50 (M14 melanoma) [µM] | GI50 (OVCAR-3 ovarian) [µM]
NS(=O)(=O)c1ccc(NC(=O)c2cccc3c(=O)c4ccccc4[nH]c23)cc1 | > 100 | > 100 | > 100 | > 100 | > 100 | > 100 | > 100 | > 100 | – | – | – | – | – | – | –
C=C(COC(C)=O)CC(/C=C(\C)CCC=C(C)C)OC(C)=O (stereo unspecified) | > 100 | > 100 | > 100 | > 100 | > 100 | > 100 | > 100 | > 100 | – | – | – | – | – | – | –
CC(=O)OCCOCBr | > 100 | > 100 | – | > 100 | > 100 | > 100 | > 100 | > 100 | – | – | – | – | – | – | –
COc1ccc(C2C(N)=NCC2c2ccccn2)cc1 (stereo unspecified) | > 100 | > 100 | > 100 | > 100 | > 100 | > 100 | > 100 | > 100 | – | – | – | – | – | – | –
c1ccc2c(c1)N=C(c1cccc3ccccc13)CC(c1cccc3ccccc13)S2 (stereo unspecified) | 27.2 | 19.7 | 11.2 | 16.6 | 20.8 | 26.2 | 16.8 | 9.68 | – | – | – | – | – | – | –
CC/C=C\C/C=C\C1CC(=O)NCCCNCCCCN1 (stereo unspecified) | > 100 | – | > 100 | > 100 | – | > 100 | > 100 | – | – | – | – | – | – | – | –
O=C1N[C@@H](O)[C@@H]2ON=C(c3ccccc3)[C@H]12 | > 100 | > 100 | > 100 | > 100 | > 100 | > 100 | > 100 | > 100 | – | – | – | – | – | – | –
COc1cc(/C=C/C(=N\NC(=O)c2ccccc2)c2sc(Nc3ccc(Cl)c(Cl)c3)nc2C)ccc1O | > 100 | > 100 | 91.8 | > 100 | – | 93.4 | 81.1 | 76.6 | – | – | – | – | – | – | –
O=c1c2ccccc2c2c3c1cccc3c1cccc3c(=O)c4ccccc4c2c31 | > 100 | > 100 | > 100 | > 100 | > 100 | > 100 | > 100 | > 100 | – | – | – | – | – | – | –
Clc1ccc(CNc2nc3ccccc3nc2-c2cccs2)c(Cl)c1 | > 100 | – | > 100 | > 100 | – | – | > 100 | > 100 | – | – | – | – | – | – | –
CC(=O)c1c(C)n([O-])c2cc(C)c(C)cc2[n+]1=O | > 100 | > 100 | > 100 | > 100 | > 100 | > 100 | > 100 | > 100 | – | – | – | – | – | – | –
O=C1c2ccccc2-c2cccc3ccc(Cc4ccccc4)c1c23 | > 100 | > 100 | > 100 | > 100 | – | > 100 | > 100 | > 100 | – | – | – | – | – | – | –
NC1=NC(=O)C(CC(=O)Nc2ccc([N+](=O)[O-])cc2[N+](=O)[O-])S1 (stereo unspecified) | > 100 | > 100 | > 100 | > 100 | – | > 100 | > 100 | > 100 | – | – | – | – | – | – | –
CN(C)C(=S)/N=c1\ss/c(=N\S(=O)(=O)c2ccccc2)n1-c1ccccc1 | > 100 | > 100 | > 100 | > 100 | > 100 | > 100 | > 100 | > 100 | – | – | – | – | – | – | –
c1cc[c]([Sn]([S]c2cccc3cccnc23)([c]2ccccc2)[c]2ccccc2)cc1 | 0.144 | 0.351 | 0.096 | 0.255 | 0.346 | 0.0624 | – | 0.0346 | 0.0462 | 0.0943 | 0.0433 | 0.0387 | 0.152 | 0.0222 | 0.0158
COc1ccc(/C=C/C(=O)c2sc(-n3nc(-c4ccccc4)cc3-c3ccccc3)nc2C)cc1OC | 74.2 | > 100 | > 100 | > 100 | – | > 100 | 92.6 | 62.5 | – | – | – | – | – | – | –
COc1ccc(C(=O)C(C(=O)CCC(=O)Nc2cccc(C(F)(F)F)c2)c2ccccc2)cc1 (stereo unspecified) | > 100 | > 100 | > 100 | > 100 | > 100 | > 100 | > 100 | > 100 | – | – | – | – | – | – | –
CC1CCCC(C(=O)/C(=C/c2cccc(Cl)c2)C(=O)C(=O)O)C1 (stereo unspecified) | > 100 | 83.5 | 25.4 | 40 | > 100 | 68.5 | > 100 | 55.4 | – | – | – | – | – | – | –
Clc1cc(Cl)c2c(Cl)cc(Cl)c3c2c1N=S=N3 | > 100 | > 100 | > 100 | > 100 | > 100 | > 100 | > 100 | > 100 | – | – | – | – | – | – | –
COc1ccc(C2=NC(C)(C)CO2)cc1 | > 100 | > 100 | – | > 100 | > 100 | – | > 100 | > 100 | – | – | – | – | – | – | –
CN1CCN(C)C1c1cccc(C2N(C)CCN2C)c1 | > 100 | > 100 | > 100 | – | > 100 | > 100 | > 100 | > 100 | – | – | – | – | – | – | –
CCOc1cccc2nc3cccc(C(=O)NCCN(C)C)c3nc12 | – | – | 3.53 | > 20.4 | 2.26 | 6.04 | 5.28 | 5.51 | – | – | – | – | – | – | –
